Molecular target: P. falciparum apicoplast DNA polymerase (Pf-apPOL) (Plasmodium falciparum, UniProt Q8ILY1)
Experiment: Fluorescence-based high-throughput DNA polymerase assay (molecular beacon), primary screen and dose-response;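 as to % inhibition ApPOL 90': test concentration in µM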;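 as to % inhibition apPOL 180': test concentration in µM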
Type: biochemical
Settings: for DNA Pol: 90 min, 10 µM
How it was run: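 Single-point screening used 10 µM compound with 20 nM polymerase, 20 nM hairpin substrate and 6 µM dNTPs for 90 min at 25 °C. Confirmatory titrations (2.5–80 µM) followed fluorescence at three times, and IC50 was derived from a fit including a cooperativity term n.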

Chain of P. falciparum apicoplast DNA polymerase (Pf-apPOL) (Q8ILY1 entry or part of it): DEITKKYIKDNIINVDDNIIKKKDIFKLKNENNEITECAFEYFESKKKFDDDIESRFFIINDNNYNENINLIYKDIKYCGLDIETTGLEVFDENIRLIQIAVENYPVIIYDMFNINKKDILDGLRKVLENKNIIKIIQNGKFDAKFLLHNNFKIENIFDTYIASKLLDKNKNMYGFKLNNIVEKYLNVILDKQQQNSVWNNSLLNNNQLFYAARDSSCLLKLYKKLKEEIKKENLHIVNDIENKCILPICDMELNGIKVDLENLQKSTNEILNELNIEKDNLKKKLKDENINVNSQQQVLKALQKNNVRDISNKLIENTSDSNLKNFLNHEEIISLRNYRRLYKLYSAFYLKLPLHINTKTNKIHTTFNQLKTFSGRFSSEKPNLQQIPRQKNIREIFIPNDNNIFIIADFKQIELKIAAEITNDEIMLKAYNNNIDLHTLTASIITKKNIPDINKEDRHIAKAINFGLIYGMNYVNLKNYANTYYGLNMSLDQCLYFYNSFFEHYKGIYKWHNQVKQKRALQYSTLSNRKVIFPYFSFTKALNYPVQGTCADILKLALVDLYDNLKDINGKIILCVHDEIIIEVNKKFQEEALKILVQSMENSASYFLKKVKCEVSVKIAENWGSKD

## Nc1ncnc(NC2CCCCC2)c1[N+](=O)[O-] [KU0193018]
DRC-1, concentration 2.5
  % inhibition Apo pol 10': -4.033%
  % inhibition Apol 90': 1.71%
  % inhibition apPOL 180': 7.961%
DRC-1, concentration 5
  % inhibition Apo pol 10': -4.7638%
  % inhibition Apol 90': 3.18%
  % inhibition apPOL 180': 11.4393%
DRC-1, concentration 10
  % inhibition Apo pol 10': 7.571%
  % inhibition Apol 90': 18.3925%
  % inhibition apPOL 180': 32.1574%
DRC-1, concentration 20
  % inhibition Apo pol 10': 20.9545%
  % inhibition Apol 90': 38.4286%
  % inhibition apPOL 180': 56.6751%
DRC-1, concentration 40
  % inhibition Apo pol 10': 53.9116%
  % inhibition Apol 90': 70.3163%
  % inhibition apPOL 180': 83.6838%
DRC-1, concentration 80 (unit not given)
  % inhibition Apo pol 10': 70.2616%
DRC-1, concentration 80
  % inhibition Apol 90': 82.4548%
  % inhibition apPOL 180': 91.4179%
DRC-2, concentration 2.5
  % inhibition Apo pol 5': -2.47%
  % inhibition Apol 40': -1.57%
  % inhibition ApPOL 90': -2.42%
  % inhibition apPOL 180': -6.58%
DRC-2, concentration 5
  % inhibition Apo pol 5': 4%
  % inhibition Apol 40': 3.32%
  % inhibition ApPOL 90': 2.51%
  % inhibition apPOL 180': -3.38%
DRC-2, concentration 10
  % inhibition Apo pol 5': 20%
  % inhibition Apol 40': 19%
  % inhibition ApPOL 90': 15%
  % inhibition apPOL 180': 6%
DRC-2, concentration 20
  % inhibition Apo pol 5': 37%
  % inhibition Apol 40': 42%
  % inhibition ApPOL 90': 38%
  % inhibition apPOL 180': 26%
DRC-2, concentration 40
  % inhibition Apo pol 5': 50%
  % inhibition Apol 40': 64%
  % inhibition ApPOL 90': 63%
  % inhibition apPOL 180': 55%
DRC-2, concentration 80
  % inhibition Apo pol 5': 52%
  % inhibition Apol 40': 71%
  % inhibition ApPOL 90': 72%
  % inhibition apPOL 180': 69%
Primary screen value of the 186 hits, unit not given
  DNA Pol: 25
Primary screen value, head prints only 'DNA Pol'
  DNA Pol: 25

— article PMC9090415, “Discovery of small molecule inhibitors of Plasmodium falciparum apicoplast DNA polymerase” (Journal of Enzyme Inhibition and Medicinal Chemistry, 2022)
